Reference: PubChem BioAssay (NCI)
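96-well plates; 48 h exposure; 5 concentrations. Endpoints by linear interpolation between flanking doses. Not reached: highest tested concentration assigned. GI50: concentration for 50% inhibition of growth. TGI marks complete inhibition of growth.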

Key:
Test in all cases: growth of human tumour cells (NCI), 48 h
[1] = system: 786-0 renal
[2] = system: A498 renal
[3] = system: A549 NSCLC
[4] = system: ACHN renal
[5] = system: BT-549 breast
[6] = system: CAKI-1 renal
[7] = system: CCRF-CEM leukemia
[8] = system: COLO 205 colon
[9] = system: DU-145 prostate
[10] = system: EKVX NSCLC
[11] = system: HCT-116 colon
[12] = system: HCT-15 colon
[13] = system: HL-60(TB) leukemia
[14] = system: HOP-62 NSCLC
[15] = system: HOP-92 NSCLC
[16] = system: HS 578T breast
[17] = system: HT29 colon
[18] = system: IGROV1 ovarian
[19] = system: K-562 leukemia
[20] = system: KM12 colon
[21] = system: LOX IMVI melanoma
[22] = system: M14 melanoma
[23] = system: MALME-3M melanoma
[24] = system: MCF7 breast
[25] = system: MDA-MB-231 breast
[26] = system: MDA-MB-435
[27] = system: MOLT-4 leukemia
[28] = system: NCI-H226 lung
[29] = system: NCI-H23 lung
[30] = system: NCI-H460 lung
[31] = system: NCI/ADR-RES ovarian
[32] = system: OVCAR-3 ovarian
[33] = system: OVCAR-4 ovarian
[34] = system: OVCAR-5 ovarian
[35] = system: OVCAR-8 ovarian
[36] = system: PC-3 prostate
[37] = system: RPMI-8226 leukemia
[38] = system: RXF 393 renal
[39] = system: SF-268 CNS
[40] = system: SF-295 CNS
[41] = system: SF-539 CNS
[42] = system: SK-MEL-2 melanoma
[43] = system: SK-MEL-28 melanoma
[44] = system: SK-MEL-5 melanoma
[45] = system: SK-OV-3 ovarian
[46] = system: SN12C renal
[47] = system: SNB-19 CNS
[48] = system: SNB-75 CNS
[49] = system: SR leukemia
[50] = system: SW-620 colon
[51] = system: T-47D breast
[52] = system: TK-10 renal
[53] = system: U251 CNS
[54] = system: UACC-257 melanoma
[55] = system: UACC-62 melanoma
[56] = system: UO-31 renal

What does the source list for `O=[N+]([O-])c1ccc(C(Br)c2ccc([N+](=O)[O-])cc2)cc1`?
GI50 [1]: 9.88 µM; TGI [1]: 26 µM; GI50 [2]: 6.06 µM; TGI [2]: 23.5 µM; GI50 [3]: 11.1 µM; TGI [3]: 26.5 µM; GI50 [4]: 11.6 µM; TGI [4]: 26.5 µM; GI50 [5]: 15.8 µM; TGI [5]: 30.7 µM; GI50 [6]: 2.11 µM; TGI [6]: 4.91 µM; GI50 [7]: 2.11 µM; TGI [7]: 5.98 µM; GI50 [8]: 11.1 µM; TGI [8]: 24 µM; GI50 [9]: 15.1 µM; TGI [9]: 28.6 µM; GI50 [10]: 14 µM; TGI [10]: 28.7 µM; GI50 [11]: 1.48 µM; TGI [11]: 4.06 µM; GI50 [12]: 1.67 µM; TGI [12]: 5.26 µM; GI50 [13]: 8.58 µM; TGI [13]: 25.6 µM; GI50 [14]: 12.5 µM; TGI [14]: 25.9 µM; GI50 [15]: 2.01 µM; TGI [15]: 4.99 µM; GI50 [16]: 17.9 µM; TGI [16]: 53.7 µM; GI50 [17]: 1.63 µM; TGI [17]: 5.2 µM; GI50 [18]: 1.37 µM; TGI [18]: 3.17 µM; GI50 [19]: 3.12 µM; TGI [19]: 10.5 µM; GI50 [20]: 5.09 µM; TGI [20]: 18.4 µM; GI50 [21]: 1.65 µM; TGI [21]: 3.23 µM; GI50 [22]: 1.91 µM; TGI [22]: 4.2 µM; GI50 [23]: 2.06 µM; TGI [23]: 5.12 µM; GI50 [24]: 4.07 µM; TGI [24]: 18.1 µM; GI50 [25]: 9.54 µM; TGI [25]: 25.2 µM; GI50 [26]: 3.44 µM; TGI [26]: 13.5 µM; GI50 [27]: 2.56 µM; TGI [27]: 6.15 µM; GI50 [28]: 5.29 µM; TGI [28]: 23.7 µM; GI50 [29]: 2.12 µM; TGI [29]: 7.14 µM; GI50 [30]: 16.3 µM; TGI [30]: 40.2 µM; GI50 [31]: 2.37 µM; TGI [31]: 6.82 µM; GI50 [32]: 11.7 µM; TGI [32]: 24.3 µM; GI50 [33]: 2.02 µM; TGI [33]: 4.85 µM; GI50 [34]: 17 µM; TGI [34]: 34.3 µM; GI50 [35]: 2.72 µM; TGI [35]: 8.4 µM; GI50 [36]: 3.34 µM; TGI [36]: 13.5 µM; GI50 [37]: 2.35 µM; TGI [37]: 6.75 µM; GI50 [38]: 12.9 µM; TGI [38]: 26.1 µM; GI50 [39]: 4.35 µM; TGI [39]: 17.7 µM; GI50 [40]: 13.9 µM; TGI [40]: 28.9 µM; GI50 [41]: 15.1 µM; TGI [41]: 31.1 µM; GI50 [42]: 4 µM; TGI [42]: 17.2 µM; GI50 [43]: 16.6 µM; TGI [43]: 30.5 µM; GI50 [44]: 2.04 µM; TGI [44]: 4.9 µM; GI50 [45]: 11 µM; TGI [45]: 23 µM; GI50 [46]: 3.07 µM; TGI [46]: 11 µM; GI50 [47]: 15 µM; TGI [47]: 33.2 µM; GI50 [48]: 12.2 µM; TGI [48]: 24.7 µM; GI50 [49]: 2.36 µM; TGI [49]: 6.73 µM; GI50 [50]: 2.89 µM; TGI [50]: 12 µM; GI50 [51]: 1.69 µM; TGI [51]: 5.13 µM; GI50 [52]: 3.01 µM; TGI [52]: 10.4 µM; GI50 [53]: 2.31 µM; TGI [53]: 6.16 µM; GI50 [54]: 10.2 µM; TGI [54]: 24.1 µM; GI50 [55]: 5.11 µM; TGI [55]: 22 µM; GI50 [56]: 1.68 µM; TGI [56]: 5.34 µM
